Experimental data from patent US10441562B2, “Aromatic farnesyl compound and application thereof” (INSTITUTE OF MICROBIOLOGY, CHINESE ACADEMY OF SCIENCES, priority 2015, dated 2019).
Read-outs that look alike come from different tables or passages of the source.

Legend:
Format in all cases: biochemical
α-glucosidase = biological target: T1, α-glucosidase (Saccharomyces cerevisiae, UniProt P53341); test: α-glucosidase inhibitory activity test in vitro
T1 construct: purchased Sigma Corporation G5003
T1 sequence (P53341 whole entry): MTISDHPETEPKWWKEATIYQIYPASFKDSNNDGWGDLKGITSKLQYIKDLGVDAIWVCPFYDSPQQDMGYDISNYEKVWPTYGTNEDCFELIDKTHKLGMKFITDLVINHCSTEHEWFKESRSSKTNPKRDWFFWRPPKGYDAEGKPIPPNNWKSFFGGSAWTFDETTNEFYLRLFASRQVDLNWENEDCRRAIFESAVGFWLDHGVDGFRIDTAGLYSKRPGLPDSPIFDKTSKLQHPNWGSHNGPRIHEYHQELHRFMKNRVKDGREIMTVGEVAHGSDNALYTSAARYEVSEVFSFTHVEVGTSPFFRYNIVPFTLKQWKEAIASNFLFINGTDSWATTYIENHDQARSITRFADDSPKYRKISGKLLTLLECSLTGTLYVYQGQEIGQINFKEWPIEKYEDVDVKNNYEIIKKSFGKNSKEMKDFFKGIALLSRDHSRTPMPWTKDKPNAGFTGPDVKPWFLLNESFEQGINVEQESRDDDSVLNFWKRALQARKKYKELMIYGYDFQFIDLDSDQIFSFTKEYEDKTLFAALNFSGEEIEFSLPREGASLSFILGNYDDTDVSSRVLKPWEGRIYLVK
Experimental: Add 25 μL α-glucosidase water solution (0.2 U/mL) and 175 μL phosphate buffer (50 mM, pH 7.0) into 25 μL different concentration of the above test solutions. The mixed solution is standed for 10 min at room temperature, and then 25 μL 4-nitrophenyl-α-D-glucopyranoside water solution (2.5 mM) is added into the mixed solution. After the solution is incubated at 37 °C for 30 min and centrifuged at 5000 rpm for 5 minutes, 150 uL supernatant is added into 96-well plates and the absorbance is detected at 405 nm.
Blank group: the test solution is replaced by 25 μL phosphate buffer (50 mM, pH 7.0); blank control group: the test solution is replaced by 25 μL phosphate buffer (50 mM, pH 7.0), meanwhile α-glucosidase water solution is replaced by 25 μL phosphate buffer (50 mM, pH 7.0); sample control group: α-glucosidase water solution is replaced by 25 μL phosphate buffer (50 mM, pH 7.0).
(§1) Repeat each of the above experiment groups for 3 times, and then average the results.
IC50=[CL(IH−50)+CH(50−IL)]/(IH−IL) CL: low concentration value; CH: high concentration value; IH: inhibition rate in high concentration; IL: inhibition rate in low concentration

dipeptidyl peptidase-4 = biological target: T2, dipeptidyl peptidase-4 (Homo sapiens, UniProt P27487); test: dipeptidyl peptidase-4 inhibitory activity test in vitro (DPP-4 inhibitor screening kit)
T2 construct: purchased
T2 sequence (P27487 whole entry, species assumed): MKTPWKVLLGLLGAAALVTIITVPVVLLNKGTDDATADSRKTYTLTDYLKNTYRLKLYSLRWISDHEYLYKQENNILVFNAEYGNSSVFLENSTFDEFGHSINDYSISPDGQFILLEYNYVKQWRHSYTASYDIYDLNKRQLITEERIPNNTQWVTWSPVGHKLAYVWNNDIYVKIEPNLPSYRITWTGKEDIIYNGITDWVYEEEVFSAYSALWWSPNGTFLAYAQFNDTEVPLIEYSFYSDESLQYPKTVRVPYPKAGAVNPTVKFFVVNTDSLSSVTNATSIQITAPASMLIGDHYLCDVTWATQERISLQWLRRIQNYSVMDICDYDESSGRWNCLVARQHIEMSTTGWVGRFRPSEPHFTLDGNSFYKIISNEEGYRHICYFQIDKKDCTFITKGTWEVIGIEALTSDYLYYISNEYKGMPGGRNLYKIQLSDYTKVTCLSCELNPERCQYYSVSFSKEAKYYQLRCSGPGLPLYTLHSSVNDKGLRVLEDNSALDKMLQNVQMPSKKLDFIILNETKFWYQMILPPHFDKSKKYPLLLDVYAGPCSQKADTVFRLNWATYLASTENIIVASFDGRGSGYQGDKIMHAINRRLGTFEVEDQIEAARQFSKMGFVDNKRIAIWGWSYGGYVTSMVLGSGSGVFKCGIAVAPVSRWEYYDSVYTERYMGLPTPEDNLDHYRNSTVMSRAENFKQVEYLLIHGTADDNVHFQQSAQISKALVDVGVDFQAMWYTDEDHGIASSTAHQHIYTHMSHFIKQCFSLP
Source text: The above compounds are detected by DPP-4 inhibitor screening kit.

aldose reductase = aldose reductase (Homo sapiens, UniProt P15121); test: aldose reductase inhibitory activity test in vitro
Experimental: Experimental procedure: the following reagents are added into 96-well plates in sequence and the mixture ratios of different groups are as followings:
Test group: 10 μL compound solution+25 μL (0.1 mM) NADPH solution+25 μL PBS buffer solution+15 μL aldose reductase diluent
Blank group: 25 μL (0.1 mM) NADPH solution+35 μL PBS buffer solution+15 μL aldose reductase diluent
Background group: 25 μL (0.1 mM) NADPH solution+60 μL PBS buffer solution+15 μL aldose reductase diluent
After adding the reagents, the 96-well plate is standed for 10 min at room temperature to make the compound and the enzyme react completely. Add 25 μL 10 mM D, L glyceraldehyde solution which is used as substrate into the groups except for background group, and incubate the solution at 37 °C for 30 min. Then detect the optical density of each well at 340 nm.

[1] = biological target: T3, protein tyrosine phosphatase 1B (PTP-1B) (Homo sapiens, UniProt P18031); test: PTP-1B inhibitory activity test in vitro
T3 sequence (P18031 1-435): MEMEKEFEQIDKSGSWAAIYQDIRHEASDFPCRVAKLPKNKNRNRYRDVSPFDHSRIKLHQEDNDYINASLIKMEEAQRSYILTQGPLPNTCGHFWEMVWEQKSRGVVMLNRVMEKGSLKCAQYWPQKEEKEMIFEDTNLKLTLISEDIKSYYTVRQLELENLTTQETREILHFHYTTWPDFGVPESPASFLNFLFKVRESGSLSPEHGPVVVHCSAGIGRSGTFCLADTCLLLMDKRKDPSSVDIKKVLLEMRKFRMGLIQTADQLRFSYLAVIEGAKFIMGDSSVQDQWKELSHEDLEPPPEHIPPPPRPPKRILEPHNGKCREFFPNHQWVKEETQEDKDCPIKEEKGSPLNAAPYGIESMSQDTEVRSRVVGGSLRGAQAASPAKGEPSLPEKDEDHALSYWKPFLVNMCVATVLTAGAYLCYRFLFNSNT
Experimental: Experimental procedure: the following reagents are added into 96-well plates in sequence and the mixture ratios of different groups are as followings: Test group: 50 μL compound solution+50 μL 170 μg/mL PTP-1B solution […] Blank group: 50 μL buffer solution+50 μL 170 μg/mL PTP-1B solution Background group: 50 μL compound solution+50 μL buffer solution After adding the reagents, the 96-well plate is […] for 10 min at room temperature to make the compound and the enzyme react completely. Add 50 μL 1 mM pNPP solution which is used as substrate and incubate the mixed solution at 37 °C for 30 min. Then add 50 μL 3M NaOH into each well of the plate to stop the reaction and the optical density is detected at […].

HMG-CoA reductase = biological target: T4, HMG-CoA reductase (Homo sapiens, UniProt P04035); test: HMG-CoA reductase inhibitory activity test in vitro
T4 sequence (P04035 426-888 limits assumed): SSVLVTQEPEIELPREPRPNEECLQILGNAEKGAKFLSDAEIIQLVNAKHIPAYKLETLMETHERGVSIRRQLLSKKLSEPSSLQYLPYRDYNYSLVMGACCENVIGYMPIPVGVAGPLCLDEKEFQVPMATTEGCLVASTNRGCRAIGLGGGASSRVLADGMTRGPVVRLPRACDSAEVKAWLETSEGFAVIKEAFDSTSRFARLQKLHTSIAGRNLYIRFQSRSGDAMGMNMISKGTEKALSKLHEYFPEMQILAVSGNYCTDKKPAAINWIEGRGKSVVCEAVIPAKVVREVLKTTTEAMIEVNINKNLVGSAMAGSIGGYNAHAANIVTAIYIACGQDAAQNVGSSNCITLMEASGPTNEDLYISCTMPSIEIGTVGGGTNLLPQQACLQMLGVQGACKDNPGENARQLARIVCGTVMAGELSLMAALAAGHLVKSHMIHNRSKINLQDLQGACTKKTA
Experimental: Add 25 μL HMG-CoA reductase water solution (0.2 U/mL), 25 μL NADPH water solution (0.2 U/mL) and 24 μL phosphate buffer (50 mM, pH 7.0) into 1 μL different concentration of the above test solution. The mixed solution is standed for 10 min at room temperature, and then 25 μL HMG-CoA is added into the mixed solution. After the solution is incubated at 37∞ for 30 min and centrifuged at 5000 rpm for 5 minutes, 80 uL supernatant is added into 96-well plates and the absorbance is detected at 550 nm.
as §1

[2] = read-out: α-glucosidase inhibitory activity (IC50)

Row | Structure (SMILES) | IC50 (dipeptidyl peptidase-4) | IC50 (aldose reductase) | IC50 [1] | IC50 (HMG-CoA reductase) | IC50 (α-glucosidase; [2]) | IC50 (α-glucosidase)
1 | CC(C)c1c(C(=O)Nc2ccccc2)c(-c2ccccc2)c(-c2ccc(F)cc2)n1CC[C@@H](O)C[C@@H](O)CC(=O)O [atorvastatin, reference compound] |  |  |  |  |  | 273 µM
2 | CC(C)=CCC/C(C)=C/CCC(CC(=O)c1cc(O)ccc1O)C(=O)O (stereo not drawn) [S36, (E)-2-(2-(2,5-dihydroxyphenyl)-2-oxoethyl)-6,10-dimethylundeca-5,9-dienoic acid] | 21.8 µM | 6.3 µM | 11.4 µM | 4.2 µM |  | 3.2 µM
3 | COC1(c2cc(O)ccc2O)C=C(CC/C=C(\C)CCC=C(C)C)C(=O)O1 (stereo not drawn) [S31, (E)-5-(2,5-dihydroxyphenyl)-3-(4,8-dimethylnona-3,7-dien-1-yl)-5-meth oxyfuran-2(5H)-one] | 15.4 µM | 87.6 µM | 15.4 µM | 32.3 µM |  | 3.23 µM
4 | CC(C)=CCC/C(C)=C/CCC1=C[C@@H](c2ccccc2O)OC1=O [S19, (S,E)-3-(4,8-dimethylnona-3,7-dien-1-yl)-5-(2-hydroxyphenyl)furan-2(5H)-one] | 20.2 µM | 25.4 µM | 11.5 µM | 5.5 µM | 0.52 µM | 
5 | CC(C)=CCC/C(C)=C/CCC1=C[C@H](c2ccc3ccccc3c2)OC1=O [S2] | 12.5 µM | 19.8 µM | 13.1 µM | 49.8 µM | 7.4 µM | 
6 | CC(C)=CCC/C(C)=C/CCC1=C[C@@H](c2cc(F)c(F)c(F)c2)OC1=O [S30, (S,E)-3-(4,8-dimethylnona-3,7-dien-1-yl)-5-(3,4,5-trifluorophenyl)furan-2(5H)-one] | 11.6 µM | 53.4 µM | 21.1 µM | 24.2 µM | 1.25 µM | 
7 | CC(C)=CCCC1=C[C@H](c2cc(O)ccc2O)OC1=O [S37, (R)-5-(2,5-dihydroxyphenyl)-3-(4-methylpent-3-en-1-yl)furan-2(5H)-one] | 15.4 µM | 12.6 µM | 12.3 µM | 65.2 µM | 1.32 µM | 
8 | C/C(=C\CC/C(C)=C/CC/C(=C/Cc1cc(O)ccc1O)C(=O)O)CO [S33, (2Z,5E,9E)-2-(2-(2,5-dihydroxyphenyl)ethylidene)-11-hydroxy-6,10-dimethylundeca-5,9-dienoic acid] | 18.7 µM | 23.1 µM | 4.5 µM | 32.9 µM |  | 12.2 µM
9 | CCc1ccc([C@@H]2C=C(CC/C=C(\C)CCC=C(C)C)C(=O)O2)cc1 [S22, (S,E)-3-(4,8-dimethylnona-3,7-dien-1-yl)-5-(4-ethylphenyl)furan-2(5H)-one] | 9.5 µM | 55.6 µM | 16.4 µM | 4.2 µM | 0.92 µM | 

The remaining compounds from weak to strong by IC50 (dipeptidyl peptidase-4), led by results:

Row | IC50 (dipeptidyl peptidase-4) | IC50 (aldose reductase) | IC50 [1] | IC50 (HMG-CoA reductase) | IC50 (α-glucosidase; [2]) | Structure (SMILES) | IC50 (α-glucosidase)
10 | 21.2 µM | 23.5 µM | 11.1 µM | 4.7 µM | 0.21 µM | CC(C)=CCC/C(C)=C/CCC1=C[C@H](c2ccccc2O)OC1=O [S4, (R,E)-3-(4,8-dimethylnona-3,7-dien-1-yl)-5-(2-hydroxyphenyl)furan-2 (5-H)-one] | 
11 | 18.5 µM | 101 µM | 16.5 µM | 1.5 µM | 52.1 µM | COc1ccc([C@@H]2C=C(CC/C=C(\C)CCC=C(C)C)C(=O)O2)cc1 [S25, (S,E)-3-(4,8-dimethylnona-3,7-dien-1-yl)-5-(4-methoxyphenyl)furan-2(5H)-one] | 
12 | 18.2 µM | > 100 µM | 10.1 µM | 1.2 µM | > 50 µM | COc1ccc([C@H]2C=C(CC/C=C(\C)CCC=C(C)C)C(=O)O2)cc1 [S10, (R,E)-3-(4,8-dimethylnona-3,7-dien-1-yl)-5-(4-methoxyphenyl)furan-2(5H)-one] | 
13 | 16.5 µM | 55.1 µM | 5.8 µM | 12.5 µM | 1.03 µM | CC(C)=CCC/C(C)=C/CCC1=C[C@@H](c2ccc(C)cc2)OC1=O [S21, (S,E)-3-(4,8-dimethylnona-3,7-dien-1-yl)-5-(p-tolyl)furan-2(5H)-one] | 
14 | 15.8 µM | 1.2 µM | 17.6 µM | 15.2 µM | 0.23 µM | CC(C)=CCC/C(C)=C/CCC1=C[C@@H](c2ccc(C(C)(C)C)cc2)OC1=O [S24, (S,E)-5-(4-(tert-butyl)phenyl)-3-(4,8-dimethylnona-3,7-dien-1-yl)furan-2 (5H)-one] | 
15 | 14.4 µM | 40.2 µM | 8.2 µM | 6.2 µM | 8.2 µM | COCOc1ccccc1[C@@H]1C=C(CC/C=C(\C)CCC=C(C)C)C(=O)O1 [S18, (S,E)-3-(4,8-dimethylnona-3,7-dien-1-yl)-5-(2-(methoxymethoxy)phenyl) furan-2(5H)-one] | 
16 | 12.9 µM | 67.5 µM | 9.8 µM | 12.5 µM | 1.23 µM | CC(C)=CCCC1=C[C@@H](c2cc(O)ccc2O)OC1=O [S38, (S)-5-(2,5-dihydroxyphenyl)-3-(4-methylpent-3-en-1-yl)furan-2(5H)-one] | 
17 | 10.2 µM | 4.9 µM | 8.1 µM | 7.4 µM | 34.2 µM | CC(C)=CCC/C(C)=C/CCC1=C[C@H](c2ccc([N+](=O)[O-])cc2)OC1=O [S11, (R,E)-3-(4,8-dimethylnona-3,7-dien-1-yl)-5-(4-nitrophenyl)furan-2(5H)-one] | 
18 | 9.2 µM | 59 µM | 15.5 µM | 4.2 µM | 0.58 µM | CCc1ccc([C@H]2C=C(CC/C=C(\C)CCC=C(C)C)C(=O)O2)cc1 [S7, (R,E)-3-(4,8-dimethylnona-3,7-dien-1-yl)-5-(4-ethylphenyl)furan-2(5H)-one] | 
19 | 8.8 µM | 93.1 µM | 9.6 µM | 87.2 µM | 49.2 µM | CC(C)=CCC/C(C)=C/CCC1=C[C@@H](c2ccc(C(C)C)cc2)OC1=O [S23, (S,E)-3-(4,8-dimethylnona-3,7-dien-1-yl)-5-(4-isopropylphenyl)furan-2(5H)-one] | 
20 | 8.8 µM | 26.1 µM | 11.8 µM | 4.4 µM | 11.5 µM | COc1ccc(OC)c([C@H]2C=C(CC/C=C(\C)CCC=C(C)C)C(=O)O2)c1 [S12, (R,E)-5-(2,5-dimethoxyphenyl)-3-(4,8-dimethylnona-3,7-dien-1-yl)furan-2(5H)-one] | 
